The text below walks through data of ChEMBL document CHEMBL1641363, “Fragment-based discovery of 6-substituted isoquinolin-1-amine based ROCK-I inhibitors” (Bioorg Med Chem Lett, 2011).

A value given as a limit tells only on which side of the number the result lay.

A word on the half-life: it is how long it takes for the measured level to halve. High values mean slow loss, low ones fast loss. A word on the inhibition: it is the relative decrease from the control value, in per cent. As usually defined, the Ki is the equilibrium dissociation constant of an inhibitor or competing ligand from its target. Low readings indicate higher affinity, high ones lower affinity. As usually defined, the bioavailability is dose-corrected exposure relative to a reference, in per cent.

Series [1] can be described thus: Permeability from apical to basolateral side of human Caco2 cells. The class given is ADME, cell-based. To be noted: Caco-2, read-out: permeability. In general terms: Caco-2 monolayers are a common model of the intestinal barrier.
Series [2] can be described thus: Half life in rat liver microsome. The format is ADME. The settings on record: liver microsomes.
Series [3] can be described thus: Half life in mouse liver microsome. The format is ADME. The settings on record: liver microsomes. On the technique in general: Liver microsomes are a subcellular fraction often used to study metabolism.
For series [4], the target named is Serine/threonine-protein kinase PLK3 (Homo sapiens) (UniProt Q9H4B4). The settings on record: 10 uM.
Description: Inhibition of PLK3 at 10 uM
Series [5] has as its target T1, Tyrosine-protein kinase receptor TYRO3 (Homo sapiens) (UniProt Q06418).
T1 sequence (whole entry): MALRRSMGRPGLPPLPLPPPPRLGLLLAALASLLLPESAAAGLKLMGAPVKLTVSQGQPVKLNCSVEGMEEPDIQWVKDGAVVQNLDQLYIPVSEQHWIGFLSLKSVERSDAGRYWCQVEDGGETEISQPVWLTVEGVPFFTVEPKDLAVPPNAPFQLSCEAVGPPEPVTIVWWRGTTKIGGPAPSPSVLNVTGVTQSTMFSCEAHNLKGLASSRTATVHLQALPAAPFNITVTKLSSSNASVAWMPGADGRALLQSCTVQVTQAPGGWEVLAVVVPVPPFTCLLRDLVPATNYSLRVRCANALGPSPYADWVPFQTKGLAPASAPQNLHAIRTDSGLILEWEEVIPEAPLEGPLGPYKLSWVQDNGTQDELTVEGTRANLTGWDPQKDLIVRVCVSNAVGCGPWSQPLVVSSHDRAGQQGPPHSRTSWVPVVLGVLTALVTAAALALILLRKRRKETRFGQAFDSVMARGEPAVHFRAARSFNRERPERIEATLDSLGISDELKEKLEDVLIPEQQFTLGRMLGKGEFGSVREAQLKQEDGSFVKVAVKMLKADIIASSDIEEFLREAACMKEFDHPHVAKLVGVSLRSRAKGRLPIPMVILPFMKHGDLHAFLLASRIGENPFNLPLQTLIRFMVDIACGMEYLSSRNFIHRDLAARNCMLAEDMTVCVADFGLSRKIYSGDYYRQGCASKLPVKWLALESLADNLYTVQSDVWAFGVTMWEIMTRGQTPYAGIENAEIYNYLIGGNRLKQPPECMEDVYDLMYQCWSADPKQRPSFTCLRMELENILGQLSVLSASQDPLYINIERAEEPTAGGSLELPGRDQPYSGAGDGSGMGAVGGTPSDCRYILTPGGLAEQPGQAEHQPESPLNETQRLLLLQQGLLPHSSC
To be noted: 10 uM.
Description: Inhibition of RSE at 10 uM

The target in series [6] is Voltage-gated inwardly rectifying potassium channel KCNH2 (Homo sapiens, UniProt Q12809). The series is described as follows: Displacement of [3H]dofetilide from human ERG.
Series [7] is described as follows: Permeability from basolateral to apical side of human Caco2 cells. The class given is ADME, cell-based. The settings on record: Caco-2, read-out: permeability.
For series [8], the target named is Angiopoietin-1 receptor (Homo sapiens) (UniProt Q02763). To be noted: 10 uM.
Description: Inhibition of Tie2 at 10 uM
The target of series [9] is T2, Ephrin type-A receptor 8 (Homo sapiens) (UniProt P29322).
T2 sequence (whole entry): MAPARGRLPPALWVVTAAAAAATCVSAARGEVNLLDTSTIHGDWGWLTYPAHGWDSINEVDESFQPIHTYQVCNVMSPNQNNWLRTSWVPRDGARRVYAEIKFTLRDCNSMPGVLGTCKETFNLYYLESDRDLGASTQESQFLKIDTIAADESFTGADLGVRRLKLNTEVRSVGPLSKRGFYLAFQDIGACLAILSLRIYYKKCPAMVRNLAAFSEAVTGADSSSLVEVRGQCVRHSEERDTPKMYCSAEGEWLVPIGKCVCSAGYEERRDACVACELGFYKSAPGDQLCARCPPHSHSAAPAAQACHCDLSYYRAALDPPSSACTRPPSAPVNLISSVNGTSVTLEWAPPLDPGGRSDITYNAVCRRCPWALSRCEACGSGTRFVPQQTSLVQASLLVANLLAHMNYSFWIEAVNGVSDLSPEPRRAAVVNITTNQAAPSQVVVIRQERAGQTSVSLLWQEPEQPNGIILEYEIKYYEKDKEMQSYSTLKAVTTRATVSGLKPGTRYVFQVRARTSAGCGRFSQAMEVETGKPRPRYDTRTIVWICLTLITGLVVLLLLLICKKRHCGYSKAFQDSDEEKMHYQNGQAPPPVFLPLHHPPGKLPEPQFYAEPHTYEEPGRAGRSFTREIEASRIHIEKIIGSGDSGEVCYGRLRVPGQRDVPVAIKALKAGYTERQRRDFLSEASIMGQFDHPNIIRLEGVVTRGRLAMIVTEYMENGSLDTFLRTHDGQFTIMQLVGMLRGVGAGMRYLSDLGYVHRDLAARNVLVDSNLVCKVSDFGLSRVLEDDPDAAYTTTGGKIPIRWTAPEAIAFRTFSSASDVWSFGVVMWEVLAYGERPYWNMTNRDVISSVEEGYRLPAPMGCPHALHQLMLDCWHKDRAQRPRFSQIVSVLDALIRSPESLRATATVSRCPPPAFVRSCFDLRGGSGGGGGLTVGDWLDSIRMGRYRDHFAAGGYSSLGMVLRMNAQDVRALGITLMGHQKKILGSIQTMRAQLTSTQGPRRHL
The settings on record: 10 uM.
Description: Inhibition of EPHA8 at 10 uM

For series [10], the target named is T3, Dual specificity tyrosine-phosphorylation-regulated kinase 3 (Homo sapiens) (UniProt O43781).
T3 sequence (whole entry): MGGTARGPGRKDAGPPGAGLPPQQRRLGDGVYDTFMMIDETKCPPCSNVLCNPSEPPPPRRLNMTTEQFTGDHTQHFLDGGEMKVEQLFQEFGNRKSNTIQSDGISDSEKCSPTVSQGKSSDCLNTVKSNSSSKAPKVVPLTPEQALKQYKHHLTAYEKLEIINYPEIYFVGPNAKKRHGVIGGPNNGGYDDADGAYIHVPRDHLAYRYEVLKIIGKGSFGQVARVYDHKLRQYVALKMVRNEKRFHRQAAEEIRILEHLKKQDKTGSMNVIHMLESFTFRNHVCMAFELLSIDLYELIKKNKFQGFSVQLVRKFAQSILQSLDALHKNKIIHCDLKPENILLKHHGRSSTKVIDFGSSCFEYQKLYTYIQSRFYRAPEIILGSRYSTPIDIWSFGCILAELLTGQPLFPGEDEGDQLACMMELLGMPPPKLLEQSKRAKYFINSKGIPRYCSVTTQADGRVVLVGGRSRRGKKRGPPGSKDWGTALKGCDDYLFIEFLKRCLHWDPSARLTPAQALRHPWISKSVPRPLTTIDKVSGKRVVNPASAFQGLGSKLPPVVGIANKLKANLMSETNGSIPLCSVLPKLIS
The settings on record: 10 uM.
Description: Inhibition of DYRK3 at 10 uM

Series [11] has as its target Rho-associated protein kinase 1 (Homo sapiens, UniProt Q13464). To be noted: 10 uM.
Description: Inhibition of ROCK1 at 10 uM
Series [12] can be described thus: Oral bioavailability in C57 mouse. The settings on record: in vivo. The class given is ADME, organism-based.
Series [13] is described as follows: Volume of distribution at steady state in C57 mouse. The format is ADME, organism-based. The settings on record: in vivo, read-out: Vdss.
A short description of series [14]: Half life in human liver microsome. The format is ADME. To be noted: liver microsomes.
The target of series [15] is Tyrosine-protein kinase Fes/Fps (Homo sapiens) (UniProt P07332). To be noted: 10 uM.
Description: Inhibition of FES at 10 uM
Series [16] can be described thus: Half life in rat hepatocyte. The format is ADME, cell-based, Liver. The settings on record: hepatocytes.

Angiopoietin-1 receptor (Homo sapiens), sequence (Q02763 whole entry): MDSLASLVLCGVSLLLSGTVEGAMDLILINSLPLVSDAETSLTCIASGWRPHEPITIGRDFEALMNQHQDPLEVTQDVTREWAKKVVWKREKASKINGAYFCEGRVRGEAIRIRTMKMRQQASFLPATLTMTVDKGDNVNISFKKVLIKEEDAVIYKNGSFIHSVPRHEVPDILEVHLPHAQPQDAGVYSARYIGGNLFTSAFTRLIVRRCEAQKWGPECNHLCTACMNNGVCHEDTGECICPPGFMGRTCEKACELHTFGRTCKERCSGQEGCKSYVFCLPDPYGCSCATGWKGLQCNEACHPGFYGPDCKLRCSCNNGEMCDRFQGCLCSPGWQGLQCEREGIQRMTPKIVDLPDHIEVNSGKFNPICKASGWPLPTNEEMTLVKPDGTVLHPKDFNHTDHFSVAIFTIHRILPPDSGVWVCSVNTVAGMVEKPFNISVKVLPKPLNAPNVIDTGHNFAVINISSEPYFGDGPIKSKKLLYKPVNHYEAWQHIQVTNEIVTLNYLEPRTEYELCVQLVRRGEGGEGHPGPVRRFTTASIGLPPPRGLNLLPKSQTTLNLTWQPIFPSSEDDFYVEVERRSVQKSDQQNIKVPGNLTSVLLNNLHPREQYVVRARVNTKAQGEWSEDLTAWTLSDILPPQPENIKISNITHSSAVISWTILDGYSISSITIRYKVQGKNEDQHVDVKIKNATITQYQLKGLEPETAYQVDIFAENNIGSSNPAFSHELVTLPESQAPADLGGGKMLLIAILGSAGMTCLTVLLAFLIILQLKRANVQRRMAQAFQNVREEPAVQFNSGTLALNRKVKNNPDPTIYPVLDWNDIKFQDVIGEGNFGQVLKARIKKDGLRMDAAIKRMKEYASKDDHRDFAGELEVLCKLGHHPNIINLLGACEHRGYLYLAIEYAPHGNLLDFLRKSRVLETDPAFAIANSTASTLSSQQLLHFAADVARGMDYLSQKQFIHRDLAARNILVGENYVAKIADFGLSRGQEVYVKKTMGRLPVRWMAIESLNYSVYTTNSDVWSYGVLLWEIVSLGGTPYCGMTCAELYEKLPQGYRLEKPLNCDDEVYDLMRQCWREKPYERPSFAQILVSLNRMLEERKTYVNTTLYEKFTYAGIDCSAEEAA
Tyrosine-protein kinase Fes/Fps (Homo sapiens), sequence (P07332 whole entry): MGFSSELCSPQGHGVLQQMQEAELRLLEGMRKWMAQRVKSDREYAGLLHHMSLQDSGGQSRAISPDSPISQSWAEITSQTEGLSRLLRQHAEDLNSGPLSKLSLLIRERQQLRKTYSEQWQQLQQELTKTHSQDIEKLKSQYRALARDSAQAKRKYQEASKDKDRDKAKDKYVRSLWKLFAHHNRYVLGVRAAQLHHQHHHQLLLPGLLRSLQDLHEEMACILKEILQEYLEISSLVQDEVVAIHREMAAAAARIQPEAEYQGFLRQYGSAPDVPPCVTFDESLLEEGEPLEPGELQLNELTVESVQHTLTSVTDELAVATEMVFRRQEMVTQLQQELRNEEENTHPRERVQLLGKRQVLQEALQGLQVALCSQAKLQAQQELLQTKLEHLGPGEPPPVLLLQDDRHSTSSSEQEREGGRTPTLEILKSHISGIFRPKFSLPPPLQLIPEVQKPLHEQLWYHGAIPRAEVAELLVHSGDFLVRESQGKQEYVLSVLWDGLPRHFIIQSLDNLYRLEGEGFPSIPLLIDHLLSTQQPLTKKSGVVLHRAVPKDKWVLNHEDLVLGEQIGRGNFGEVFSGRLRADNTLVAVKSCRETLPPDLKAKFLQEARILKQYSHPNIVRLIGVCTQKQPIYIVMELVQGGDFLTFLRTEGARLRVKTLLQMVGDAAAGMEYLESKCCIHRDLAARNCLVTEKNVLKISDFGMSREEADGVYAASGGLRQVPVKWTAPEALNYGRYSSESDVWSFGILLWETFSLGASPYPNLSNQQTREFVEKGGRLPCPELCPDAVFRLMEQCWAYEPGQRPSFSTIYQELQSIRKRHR
Serine/threonine-protein kinase PLK3 (Homo sapiens), sequence (Q9H4B4 whole entry, looked up): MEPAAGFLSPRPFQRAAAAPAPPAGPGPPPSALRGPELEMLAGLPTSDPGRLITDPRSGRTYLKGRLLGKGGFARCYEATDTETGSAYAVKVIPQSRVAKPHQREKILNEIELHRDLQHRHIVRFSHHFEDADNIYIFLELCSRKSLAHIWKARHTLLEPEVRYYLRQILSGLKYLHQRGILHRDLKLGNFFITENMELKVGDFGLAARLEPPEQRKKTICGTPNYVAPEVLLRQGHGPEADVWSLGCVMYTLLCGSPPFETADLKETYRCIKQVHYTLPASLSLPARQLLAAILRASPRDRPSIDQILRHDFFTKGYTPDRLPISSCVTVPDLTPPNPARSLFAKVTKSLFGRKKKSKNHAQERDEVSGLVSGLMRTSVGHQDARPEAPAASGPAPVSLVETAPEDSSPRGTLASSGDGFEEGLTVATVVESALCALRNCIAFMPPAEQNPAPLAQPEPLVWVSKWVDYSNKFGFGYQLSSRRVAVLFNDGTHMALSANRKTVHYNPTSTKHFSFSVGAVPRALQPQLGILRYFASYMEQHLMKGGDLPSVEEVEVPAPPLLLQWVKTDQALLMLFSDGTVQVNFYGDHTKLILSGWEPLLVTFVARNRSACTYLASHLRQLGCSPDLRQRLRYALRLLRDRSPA
Voltage-gated inwardly rectifying potassium channel KCNH2, sequence (Q12809 whole entry): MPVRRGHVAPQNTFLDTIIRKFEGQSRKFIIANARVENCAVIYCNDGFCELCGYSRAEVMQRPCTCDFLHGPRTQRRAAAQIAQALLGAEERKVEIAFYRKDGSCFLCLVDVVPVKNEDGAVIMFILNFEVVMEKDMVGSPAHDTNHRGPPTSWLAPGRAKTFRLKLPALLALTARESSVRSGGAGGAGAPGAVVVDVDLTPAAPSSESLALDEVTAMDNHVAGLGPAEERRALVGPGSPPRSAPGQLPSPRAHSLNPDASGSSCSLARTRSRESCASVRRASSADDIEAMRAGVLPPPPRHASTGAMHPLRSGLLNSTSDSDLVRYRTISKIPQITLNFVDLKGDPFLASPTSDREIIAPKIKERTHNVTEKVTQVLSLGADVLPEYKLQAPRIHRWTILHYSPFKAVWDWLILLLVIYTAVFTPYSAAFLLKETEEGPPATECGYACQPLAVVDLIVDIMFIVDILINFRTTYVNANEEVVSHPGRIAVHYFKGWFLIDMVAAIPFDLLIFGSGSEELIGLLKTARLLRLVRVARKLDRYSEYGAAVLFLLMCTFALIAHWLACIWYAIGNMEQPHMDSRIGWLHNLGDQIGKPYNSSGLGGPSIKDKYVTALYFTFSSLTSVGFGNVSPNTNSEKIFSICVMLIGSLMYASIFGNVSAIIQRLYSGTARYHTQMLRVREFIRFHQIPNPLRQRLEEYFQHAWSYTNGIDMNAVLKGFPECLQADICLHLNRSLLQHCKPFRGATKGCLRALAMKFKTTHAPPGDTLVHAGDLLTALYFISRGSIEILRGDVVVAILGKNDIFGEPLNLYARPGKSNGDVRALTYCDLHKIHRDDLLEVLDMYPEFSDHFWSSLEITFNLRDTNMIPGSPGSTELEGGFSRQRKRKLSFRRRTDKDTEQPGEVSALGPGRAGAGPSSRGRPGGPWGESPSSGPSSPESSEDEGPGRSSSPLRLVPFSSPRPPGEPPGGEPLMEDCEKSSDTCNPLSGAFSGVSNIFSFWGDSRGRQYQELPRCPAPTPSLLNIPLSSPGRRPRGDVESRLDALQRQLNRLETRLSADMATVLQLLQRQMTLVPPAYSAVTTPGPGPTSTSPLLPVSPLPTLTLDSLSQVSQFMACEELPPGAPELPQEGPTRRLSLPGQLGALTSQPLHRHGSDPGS
Rho-associated protein kinase 1, sequence (Q13464 2-1354 limits assumed): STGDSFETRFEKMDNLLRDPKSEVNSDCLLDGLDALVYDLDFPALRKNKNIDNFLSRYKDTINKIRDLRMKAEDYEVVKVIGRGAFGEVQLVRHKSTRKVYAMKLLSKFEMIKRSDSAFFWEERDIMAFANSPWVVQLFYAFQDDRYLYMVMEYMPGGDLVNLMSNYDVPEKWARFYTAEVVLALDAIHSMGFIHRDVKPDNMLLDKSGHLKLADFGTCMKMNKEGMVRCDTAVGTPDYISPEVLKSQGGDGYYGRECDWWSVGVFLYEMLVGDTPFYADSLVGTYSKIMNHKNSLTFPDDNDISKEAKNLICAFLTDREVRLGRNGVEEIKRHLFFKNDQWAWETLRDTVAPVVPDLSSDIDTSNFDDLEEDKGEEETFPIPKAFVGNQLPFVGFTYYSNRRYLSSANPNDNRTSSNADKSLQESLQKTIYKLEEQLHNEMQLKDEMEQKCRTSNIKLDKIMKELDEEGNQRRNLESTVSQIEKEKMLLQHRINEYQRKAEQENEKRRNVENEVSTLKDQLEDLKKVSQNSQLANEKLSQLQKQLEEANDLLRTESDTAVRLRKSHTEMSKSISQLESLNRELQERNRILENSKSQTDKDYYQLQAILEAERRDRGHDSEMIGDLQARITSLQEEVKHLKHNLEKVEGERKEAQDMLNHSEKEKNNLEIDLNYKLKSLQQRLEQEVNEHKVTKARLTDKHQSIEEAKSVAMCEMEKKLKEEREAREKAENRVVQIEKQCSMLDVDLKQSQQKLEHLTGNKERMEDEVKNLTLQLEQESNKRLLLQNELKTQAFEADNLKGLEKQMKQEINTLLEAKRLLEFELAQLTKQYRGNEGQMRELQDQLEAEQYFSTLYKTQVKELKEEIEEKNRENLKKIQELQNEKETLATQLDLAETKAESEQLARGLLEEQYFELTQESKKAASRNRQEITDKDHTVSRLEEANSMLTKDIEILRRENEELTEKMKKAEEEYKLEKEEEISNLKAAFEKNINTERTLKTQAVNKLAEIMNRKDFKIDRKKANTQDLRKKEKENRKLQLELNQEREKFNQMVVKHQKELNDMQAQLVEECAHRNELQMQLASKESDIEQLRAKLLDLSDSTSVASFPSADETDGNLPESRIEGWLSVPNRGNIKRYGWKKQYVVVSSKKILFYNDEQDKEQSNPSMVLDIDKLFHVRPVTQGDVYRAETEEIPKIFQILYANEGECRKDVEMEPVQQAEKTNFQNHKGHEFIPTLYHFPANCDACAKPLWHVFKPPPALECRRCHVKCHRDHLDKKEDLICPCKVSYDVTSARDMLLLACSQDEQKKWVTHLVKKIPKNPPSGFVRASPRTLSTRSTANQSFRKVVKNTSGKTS

In the case of `Nc1nccc2cc(O[C@H]3CCCNC3)ccc12`, the Papp A→B in series [1] is 6.3 ×10⁻⁶ cm/s. Moreover, the half-life in [2] is more than 2 h; in series [3], more than 2 h; in series [14] it was more than 2 h; in [16] it was 1.17 h. Besides, the inhibition in series [4], in series [5], in series [8], in series [9], in series [10] and in series [11] was more than 80% throughout. The inhibition in series [15] was more than 80%. In series [6], the affinity corresponds to a Ki of 20 µM. The Papp B→A in series [7] was 3.6 ×10⁻⁶ cm/s. Further, in series [12], the bioavailability was more than 75%. Besides, the Vd in series [13] stood at 11 L/kg.
